# pIC50: −log10 of the molar value.
# Tests used:
# IDH1 R132C = IDH1 R132C (Homo sapiens, UniProt O75874, R132C); experiment: IDH1 R132C enzymatic assay (NADPH depletion coupled to diaphorase/resazurin); assay type: biochemical
# How it was run: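 NADPH depletion, read via diaphorase/resazurin coupling, after adding substrate at 0.6 mM α-KG and 0.012 mM NADPH. Beforehand, 0.00032 mg/mL enzyme sat with compound 30 min at room temperature in pH 6.5 potassium phosphate buffer with MgCl2, glycerol and BSA.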
# IDH1 R132H = IDH1 R132H (Homo sapiens, UniProt O75874, R132H); experiment: IDH1 R132H enzymatic assay (NADPH depletion coupled to diaphorase/resazurin); assay type: biochemical
# IDH1 R132H, sequence (O75874 whole entry R132H): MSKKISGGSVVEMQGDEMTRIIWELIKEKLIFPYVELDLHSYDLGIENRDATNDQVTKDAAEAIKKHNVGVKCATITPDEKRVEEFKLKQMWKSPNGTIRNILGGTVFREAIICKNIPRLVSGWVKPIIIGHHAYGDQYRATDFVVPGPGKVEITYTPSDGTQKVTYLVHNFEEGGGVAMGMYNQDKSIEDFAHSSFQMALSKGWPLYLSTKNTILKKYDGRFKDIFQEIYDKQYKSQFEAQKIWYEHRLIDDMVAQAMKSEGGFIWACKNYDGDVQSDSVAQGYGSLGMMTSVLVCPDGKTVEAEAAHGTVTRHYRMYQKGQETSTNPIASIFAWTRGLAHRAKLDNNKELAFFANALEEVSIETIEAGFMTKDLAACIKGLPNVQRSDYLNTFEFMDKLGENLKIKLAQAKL
# [1] = IDH1 R132C enzymatic inhibition, IC50 class
# [2] = IDH1 R132H enzymatic inhibition, IC50 class
# [3] = enzymatic inhibition, IDH1 R132C
# [4] = enzymatic inhibition, IDH1 R132H
# IDH1 R132C, sequence (O75874 whole entry R132C): as the sequence (O75874 whole entry R132H) above, with H132C counted along it
Compound,pIC50 (IDH1 R132C; [1]),pIC50 (IDH1 R132H; [2]),pIC50 (IDH1 R132C; [3]),pIC50 (IDH1 R132H; [4])
CCc1cccc(CC)c1-n1c(C(C)C)c(C(=O)N2CCN[C@@H](C)C2)cc(-c2nc(-c3ccc(Cl)cc3)cs2)c1=O [Compound 234],6.00 to 6.52,5.30 to 6.00,–,–
CCc1ccc(F)cc1-n1c(C=C(C)C)c(C(=O)N2CCNCC2)cc(-c2nc(-c3ccc(C(F)F)cc3)cs2)c1=O [Compound 379],> 6.52,> 6.52,–,–
CCc1cccc(CC)c1-n1c2c(cc(-c3nc(-c4cccc(Cl)c4)cs3)c1=O)C(=O)CC(C)(C)C2 [Compound 205],5.30 to 6.00,< 4.70,–,–
CCc1ccc(F)cc1-n1c(C=C(C)C)c(C(=O)N2CCNCC2)cc(-c2nc(-c3ccc(Cl)cc3)cs2)c1=O [Compound 352],> 6.52,> 6.52,–,–
CCc1cccc(CC)c1-n1c2c(cc(-c3nc(-c4ccccc4F)cs3)c1=O)C(=O)CC(C)(C)C2 [Compound 226],5.30 to 6.00,5.30 to 6.00,–,–
CCc1cccc(CC)c1-n1c(CC(C)C)c(C(=O)N2CCNCC2)cc(-c2nc(-c3ccc(Cl)cc3)c(Br)s2)c1=O [Compound 601],–,–,> 6.52,6.00 to 6.52
CCc1cccc(CC)c1-n1c(CC(C)C)c(C(=O)N2CCNCC2)cc(-c2nc(-c3ccc(F)cc3)c(C)s2)c1=O [Compound 181],> 6.52,> 6.52,–,–
CCc1ncc(OC)cc1-n1c(C=C(C)C)c(C(=O)N2CCNCC2)cc(-c2nc(-c3ccc(C(F)F)cc3)cs2)c1=O [Compound 427],–,–,6.00 to 6.52,> 6.52
CCc1cccc(CC)c1-n1c(CC(C)C)c(C(=O)N2CCN[C@@H](C(=O)OC)C2)cc(-c2nc(-c3ccc(Cl)cc3)cs2)c1=O [Compound 131],> 6.52,5.30 to 6.00,–,–
COc1ccc(OC)c(-n2c3c(cc(-c4ncc(-c5ccc(Cl)cc5)s4)c2=O)C(=O)CC(C)(C)C3)c1 [Compound 266],< 4.70,< 4.70,–,–
CC1(C)CC(=O)c2cc(-c3nc(-c4ccc(Cl)cc4)cs3)c(=O)n(-c3ccccc3C3CC3)c2C1 [Compound 50],6.00 to 6.52,6.00 to 6.52,–,–
COc1ccc(OC)c(-n2c3c(cc(-c4nc(-c5ccc(Cl)cc5)no4)c2=O)C(=O)CC(C)(C)C3)c1 [Compound 306],4.70 to 5.30,4.70 to 5.30,–,–
CC1(C)CC(=O)c2cc(-c3nc(-c4ccc(Cl)cc4)cs3)c(=O)n(-c3ccccc3C(=O)O)c2C1 [Compound 227],4.70 to 5.30,4.70 to 5.30,–,–
CCc1cccc(CC)c1-n1c(C(C)C)c(C(=O)N2CCN[C@@H](C(=O)O)C2)cc(-c2nc(-c3ccc(Cl)cc3)cs2)c1=O [Compound 28],> 6.52,> 6.52,–,–
CC(C)=Cc1c(C(=O)N2CCNCC2)cc(-c2nc(-c3ccc(Cl)cc3)cs2)c(=O)n1-c1c(F)cccc1OC(C)C [Compound 494],–,–,> 6.52,> 6.52
CCc1cccc(CC)c1-n1c(CC(C)C)c(C(=O)N2C[C@@H](C)N[C@@H](C)C2)cc(-c2nc(-c3ccc(Cl)cc3)cs2)c1=O [Compound 112],> 6.52,6.00 to 6.52,–,–
CCc1cccc(CC)c1-n1c(CC(C)C)c(C(=O)N2CCNCC2)cc(-c2nc(-c3ccc(Cl)cc3Cl)c(C)s2)c1=O [Compound 637],6.00 to 6.52,6.00 to 6.52,–,–
CC(C)=Cc1c(C(=O)N2CCNCC2)cc(-c2nc(-c3ccc(Cl)cc3)cs2)c(=O)n1-c1ccccc1C(C)(C)C [Compound 372],> 6.52,> 6.52,–,–
CCc1cccc(CC)c1-n1c(C(C)C)c(C(=O)N2CCNC[C@H]2C)cc(-c2nc(-c3ccc(Cl)cc3)cs2)c1=O [Compound 37],6.00 to 6.52,5.30 to 6.00,–,–
CCc1cccc(CC)c1-n1c(CC(C)C)c(C(=O)NC(C)(C)CO)cc(-c2nc(-c3ccc(Cl)cc3)cs2)c1=O [Compound 54],6.00 to 6.52,6.00 to 6.52,–,–
CC1(C)CC(=O)c2cc(-c3nc(-c4ccc(Cl)cc4)cs3)c(=O)n(-c3ccccc3)c2C1 [Compound 150],4.70 to 5.30,4.70 to 5.30,–,–
COc1ncc(C)cc1-n1c(C=C(C)C)c(C(=O)N2CCNCC2)cc(-c2nc(-c3ccc(Cl)cc3)cs2)c1=O [Compound 667],> 6.52,> 6.52,–,–
COc1ccc(-n2c3c(cc(-c4nc(-c5ccc(Cl)cc5)cs4)c2=O)C(=O)CC(C)(C)C3)c(Cl)c1 [Compound 663],5.30 to 6.00,< 4.70,–,–
CCc1cccc(CC)c1-n1c(CC(C)C)c(C(=O)N2CCN[C@@H](C(=O)O)C2)cc(-c2nc(-c3ccc(Cl)cc3)cs2)c1=O [Compound 102],> 6.52,6.00 to 6.52,–,–
O=C1CCCc2c1cc(-c1nc(-c3ccc(Cl)cc3)cs1)c(=O)n2-c1ccc(CO)cc1 [Compound 649],< 4.70,< 4.70,–,–
CCc1cccc(CC)c1-n1c(CC(C)C)c(C(=O)N2CCNC(=O)C2c2ccccc2)cc(-c2nc(-c3ccc(Cl)cc3)cs2)c1=O (stereo not drawn) [Compound 155],> 6.52,6.00 to 6.52,–,–
CCc1cccc(CC)c1N1C(=O)C(c2nc(-c3ccc(Cl)cc3)cs2)CC(C(=O)N2CCNCC2)=C1CC(C)C (stereo not drawn) [Compound 356],> 6.52,6.00 to 6.52,–,–
